The test system of assay [1] is MCF-7. In words: MTT antiproliferative assay, MCF-7. It is filed as cell-based, human. On the procedure:
(§1) Compounds 2a–g were tested for their growth inhibitory effectiveness against MCF-7, A-549, and SKOV3 cell lines by means of MTT assay, with doxorubicin used as an anticancer standard drug. […] Remarkably, we note the high antiproliferative activity of 2c and 2d, only towards SKOV3.
(§2) The Roswell Park Memorial Institute medium (RPMI 1640, Gibco, Grand Island, NY, USA) was used to culture the following cancer cell lines including MCF-7, A549, and SKOV3. Cells were grown in FBS (10%) and 100 units mL PS (penicillin/streptomycin) and were supplied to the same medium under standard cell conditions in an incubator (5% of CO2, at 37 °C).
(§3) Cell viability was measured according to the previously published work.
In general terms: Formazan colour is commonly taken as a measure of viable cells.

The test system of assay [2] is SKOV-3. The assay is described as follows: MTT antiproliferative assay, SKOV3. It is filed as cell-based, human. On the procedure:
as §1, §2, §3

Assay [3] has as its system A549. The assay is described as follows: MTT antiproliferative assay, A549. It is filed as cell-based, human.
Method: Cell viability was measured according to the previously published work [42].
Assay [4] concerns SKOV3. The assay is described as follows: Cellular apoptosis assay (flow cytometry), SKOV3. In kind it is cell-based, human. The note with it: SKOV3, at IC50, 48 h. Background: A flow cytometer gives signals particle by particle.
Assay [5] relates to SKOV3. In words: Flow cytometric cell cycle analysis (PI), SKOV3. In kind it is cell-based, human. The note with it: for cell cycle arrest phase: SKOV3; for (%) of cells in G0/G1 / (%) of cells in S / decrease in the G2/M phase vs control, factor: SKOV3, 48 h at IC50. As to the method: (§4) Based on the antiproliferative activity data shown above, a flow cytometry analysis was performed to identify the cell cycle arrest induced by the selected compounds (2f and 2g) in the three cell lines, for 48 h at their respective IC50 concentrations (Figure 4). The cell cycle (G1, S, and G2) was analyzed after staining the DNA with propidium iodide (PI). […] Towards SKOV3 cell lines, the population of cells in the G0/G1 phase was not affected for 2f (31.4 ± 1.2 vs. 30.8 ± 1.5) and increased for 2g (31.4 ± 1.2 vs. 44.5 ± 0.6). Moreover, in the S phase, it was increased for 2f (43.1 ± 0.6vs. 59.5 ± 0.2) and not affected for 2g (43.1 ± 0.6 vs. 44.8 ± 1.6), however, it decreased in the G2/M phase for both 2f and 2g by a factor of 2.83 and 2.44, respectively.
(§5) The effect of selected compounds on cell cycle phase distribution was determined by flow cytometry using the same protocol described elsewhere.

Assay [6] has as its system MCF-7. The assay is described as follows: Cellular apoptosis assay (flow cytometry), MCF-7. It is filed as cell-based, human. To be noted: MCF-7, at IC50, 48 h.
For assay [7], the system named is MCF-7. In words: Flow cytometric cell cycle analysis (PI), MCF-7. In kind it is cell-based, human. The note with it: for cell cycle arrest phase: MCF-7; for (%) of cells in G0/G1 / (%) of cells in S: MCF-7, 48 h at IC50. As to the method:
as §4, §5

In assay [8] the target is EGFR tyrosine kinase (Homo sapiens, UniProt P00533). In words: EGFR tyrosine kinase inhibition. It is filed as biochemical. The note with it: enzymatic inhibition.
Sequence of EGFR tyrosine kinase (P00533 25-1210): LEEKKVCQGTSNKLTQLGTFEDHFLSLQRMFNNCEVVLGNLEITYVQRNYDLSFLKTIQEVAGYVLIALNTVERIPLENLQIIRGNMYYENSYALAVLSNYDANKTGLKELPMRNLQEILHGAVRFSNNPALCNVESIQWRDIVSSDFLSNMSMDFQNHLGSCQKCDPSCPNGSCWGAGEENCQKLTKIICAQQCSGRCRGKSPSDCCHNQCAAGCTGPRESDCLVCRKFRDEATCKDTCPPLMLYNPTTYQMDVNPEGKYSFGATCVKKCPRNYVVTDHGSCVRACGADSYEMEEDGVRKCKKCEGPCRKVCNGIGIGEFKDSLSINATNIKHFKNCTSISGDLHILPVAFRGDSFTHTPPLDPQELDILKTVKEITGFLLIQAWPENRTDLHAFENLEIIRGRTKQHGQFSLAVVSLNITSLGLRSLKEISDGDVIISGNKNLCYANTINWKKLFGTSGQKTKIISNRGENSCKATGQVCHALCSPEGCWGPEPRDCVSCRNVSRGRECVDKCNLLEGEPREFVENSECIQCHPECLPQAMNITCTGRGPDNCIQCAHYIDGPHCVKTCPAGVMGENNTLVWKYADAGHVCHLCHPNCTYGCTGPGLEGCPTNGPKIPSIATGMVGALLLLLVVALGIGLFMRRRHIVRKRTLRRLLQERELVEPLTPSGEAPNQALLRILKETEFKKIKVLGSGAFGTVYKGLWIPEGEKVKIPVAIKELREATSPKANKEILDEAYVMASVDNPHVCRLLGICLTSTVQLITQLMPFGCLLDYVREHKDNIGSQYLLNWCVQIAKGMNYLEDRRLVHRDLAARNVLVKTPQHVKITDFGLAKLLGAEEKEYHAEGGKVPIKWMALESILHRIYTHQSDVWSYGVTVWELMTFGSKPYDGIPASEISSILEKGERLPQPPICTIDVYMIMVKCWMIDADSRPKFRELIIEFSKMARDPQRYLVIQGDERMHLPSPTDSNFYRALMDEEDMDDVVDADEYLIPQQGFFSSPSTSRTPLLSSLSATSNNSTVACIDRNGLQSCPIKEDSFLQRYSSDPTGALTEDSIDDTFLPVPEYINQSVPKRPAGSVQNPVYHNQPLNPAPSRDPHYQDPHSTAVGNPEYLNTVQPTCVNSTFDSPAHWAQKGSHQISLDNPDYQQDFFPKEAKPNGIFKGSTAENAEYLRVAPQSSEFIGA
Method: The EGFR activity was determined based on the method reported by E.A.A. El-Meguid et al. [43].
The test system of assay [9] is A549. In words: Cellular apoptosis assay (flow cytometry), A549. In kind it is cell-based, human. The note with it: A549, at IC50, 48 h.
Assay [10] deals with A549. In words: Flow cytometric cell cycle analysis (PI), A549. In kind it is cell-based, human. To be noted: for cell cycle arrest phase: A549.
Method: The effect of selected compounds on cell cycle phase distribution was determined by flow cytometry using the same protocol described elsewhere [44].
[11] abbreviates: Homo sapiens, SK-OV-3, MTT assay.

The values below come from article PMC10384175, “In Vitro and In Silico Evaluation of Antiproliferative Activity of New Isoxazolidine Derivatives Targeting EGFR: Design, Synthesis, Cell Cycle Analysis, and Apoptotic Inducers” (Pharmaceuticals, 2023).

One may read the IC50 as the concentration that gives 50% inhibition. A lower IC50 goes with higher potency. Turning to `COc1cc(C[C@@H]2C[C@H]3C(=O)N(C)[C@@]4(C[C@H](C)CC[C@H]4C(C)C)N3O2)ccc1OC(C)=O` [2e, 4-(((1S,2S,2′R,3a′S,5R)-2-Isopropyl-5,5′-dimethyl-4′-oxotetrahydro-2′H-spiro[cyclohexane-1,6′-imidazo [1,5-b]isoxazol]-2′-yl)methyl)-2-methoxyphenyl acetate], the IC50 in assay [1] (Homo sapiens, MCF7, MTT assay) stood at 66.8 ± 2.7 µM; in assay [2] (setting [11]), 27.9 ± 1.9 µM; in assay [3] (Homo sapiens, A549, MTT assay), 53.5 ± 1.1 µM.
On to “(2R,2′R,3a′S,5R)-2′-(2-acetyl-6-hydroxybenzyl)-2,5,5′-trimethyldihydro-2′H-spiro[cyclohexane-1,6′-imidazo [1,5-b]isoxazol]-4′(5′H)-one [2b]”, for which the IC50 in assay [1] (MTT assay) was found to be 22.2 ± 0.3 µM; in [2] (MTT assay), 18.3 ± 0.9 µM; in assay [3] (MTT assay) it was 48.7 ± 0.9 µM.
With `COC(=O)c1cc(C)cc(C[C@@H]2C[C@H]3C(=O)N(C)[C@@]4(C[C@H](C)CC[C@H]4C(C)C)N3O2)c1O` [2g, Methyl 2-hydroxy-3-(((1S,2S,2′R,3a′S,5R)-2-isopropyl-5,5′-dimethyl-4′-oxotetrahydro-2′H-spiro[cyclohexane-1,6′-imidazo[1,5-b]isoxazol]-2′-yl)methyl)-5-methylbenzoate], the IC50 in [1] (Homo sapiens, MCF7, MTT assay) worked out at 17.7 ± 1 µM; in assay [1] (MTT assay) it was 9.7 ± 1.3 µM; in assay [8], 0.484 ± 0.01 µM; in assay [3] (Homo sapiens, A549, MTT assay) it was 12.1 ± 1.1 µM; in [3] (MTT assay), 9.7 ± 0.7 µM. The Early apoptosis in assay [4] was determined as 12.92%; in assay [6] it was 46.49%; in assay [9], 60.72%. In addition, the results for the Intact cells in assay [4], in [6] and in [9] were 3.34%, 24.83% and 21.24%, respectively. The Late apoptosis in [4] was 81.05%; in assay [6], 20.51%; in assay [9] it was 17.69%. For the same molecule, the Necrosis in [4] was 2.68%; in [6], 8.17%; in assay [9], 0.35%. In addition, the “Total death (cellular apoptosis)” value is recorded as 96.65% in assay [4], 75.17% in assay [6] and 78.76% in assay [9]. The “cell cycle arrest phase” value in assay [5], in assay [7] and in assay [10] was “G0/G1 phase” each time. The “(%) of cells in G0/G1” value is 44.5 ± 0.6% in assay [5]; 53.7 ± 0.6% in assay [7]; 49.3 ± 0.7% in assay [10] (A549, 48 h at IC50). Also, the “(%) of cells in S” value in assay [5] turned out to be 44.8 ± 1.6%; in assay [7], 36.3 ± 0.6%; in assay [10] (A549, 48 h at IC50) it was 40.2 ± 0.3%. Besides, the “decrease in the G2/M phase vs control, factor” value in assay [5] stood at 2.44. Moreover, in [10] (A549, 48 h at IC50), the “decrease of population in the G2/M phase vs control” value came to 2.37 folds. In addition, the “decrease of population in the S phase vs control” value in assay [10] (A549, 48 h at IC50) is 1.08 folds.
Turning to `COc1cccc2c1C(=O)c1c(O)c3c(c(O)c1C2=O)C[C@@](O)(C(=O)CO)C[C@@H]3O[C@H]1C[C@H](N)[C@H](O)[C@H](C)O1` [Doxorubicin, doxorubicin, reference compound], the IC50 was found to be 2.8 ± 0.4 µM in assay [1] (Homo sapiens, MCF7, MTT assay); 4.2 ± 0.013 µM in [2] (setting [11]); 4.2 ± 0.24 µM in [3] (Homo sapiens, A549, MTT assay). The Early apoptosis in [4] came to 20.56%; in [6], 17.12%; in assay [9] it was 9.38%. The Intact cells is 3.25% in assay [4], 7.94% in assay [6] and 1.16% in assay [9]. The Late apoptosis turned out to be 73.08% in [4], 68.7% in [6] and 88.01% in assay [9]. Further, the Necrosis was 3.11% in [4], 6.24% in assay [6] and 1.45% in [9]. Also, the “Total death (cellular apoptosis)” value in [4] came out at 96.75%; in assay [6], 92.06%; in assay [9], 98.84%. Moreover, the “(%) of cells in G0/G1” value was determined as 16.7 ± 1% in assay [5]; 18.4 ± 0.9% in [7]; 16.12 ± 0.54% in [10] (A549, 48 h at IC50). Further, the “(%) of cells in S” value in assay [5] is on record as 30.7 ± 0.6%; in assay [7], 34 ± 0.6%; in assay [10] (A549, 48 h at IC50), 34.01 ± 0.24%.
Consider `COc1cc(C[C@@H]2C[C@H]3C(=O)N(C)C4(C[C@H](C)CC[C@H]4C(C)C)N3O2)ccc1O` (stereo partly drawn) [2a, (2S,2′R,3a′S,5R)-2′-(4-hydroxy-3-methoxybenzyl)-2-isopropyl-5,5′-dimethyldihydro-2′H-spiro[cyclohexane-1,6′-imidazo [1,5-b]isoxazol]-4′(5′H)-one], for which the IC50 in assay [1] (Homo sapiens, MCF7, MTT assay) was 21.3 ± 0.5 µM; in [2] (setting [11]) it was 14.5 ± 0.9 µM; in [3] (Homo sapiens, A549, MTT assay), 18.1 ± 0.7 µM.
The like results for `COc1ccc(C[C@@H]2C[C@H]3C(=O)N(C)C4(C[C@H](C)CC[C@H]4C(C)C)N3O2)cc1OC` (stereo partly drawn) [2d, (2S,2′R,3a′S,5R)-2′-(3,4-dimethoxybenzyl)-2-isopropyl-5,5′-dimethyldihydro-2′H-spiro[cyclohexane-1,6′-imidazo [1,5-b]isoxazol]-4′(5′H)-one] were, in that order, 8.7 ± 0.5 µM, 27.6 ± 2.2 µM and 25 ± 2.5 µM.
For the molecule `CC(C)[C@@H]1CC[C@@H](C)C[C@@]12N(C)C(=O)[C@@H]1C[C@@H](Cc3ccccc3O)ON12` [2f, (1S,2S,2′R,3a′S,5R)-2′-(2-Hydroxybenzyl)-2-isopropyl-5,5′-dimethyldihydro-2′H-spiro[cyclohexane-1,6′-imidazo [1,5-b]isoxazol]-4′(5′H)-one], the IC50 amounted to 9.7 ± 1.3 µM in [1] (Homo sapiens, MCF7, MTT assay); 17.7 ± 1 µM in assay [1] (MTT assay); 0.298 ± 0.007 µM in assay [8]; 9.7 ± 0.7 µM in assay [3] (Homo sapiens, A549, MTT assay); 12.1 ± 1.1 µM in assay [3] (MTT assay). For the same molecule, the Early apoptosis in [4] came out at 17.9%; in assay [6] it was 70.48%; in assay [9], 16.72%. In addition, the Intact cells turned out to be 8.78% in [4], 13.11% in assay [6] and 7.39% in assay [9]. Moreover, the results for the Late apoptosis in assay [4], in [6] and in assay [9] were 67.16%, 15.78% and 70.5%, respectively. Besides, the Necrosis is 6.16% in assay [4], 0.63% in assay [6] and 5.39% in assay [9]. The “Total death (cellular apoptosis)” value in assay [4] is recorded as 91.22%; in assay [6], 86.89%; in assay [9], 92.61%. Also, the “cell cycle arrest phase” value in assay [5] was “S phase”; in assay [7] it was “S phase”; in assay [10] it was “G2/M phase”. Moreover, the “(%) of cells in G0/G1” value in assay [5] was 31.4 ± 1.2%; in assay [7] it was 19 ± 1.2%; in [10] (A549, 48 h at IC50) it was 23.1 ± 0.8%. The “(%) of cells in S” value is given as 59.5 ± 0.2% in assay [5] and 63.3 ± 0.6% in [7]. Also, the “decrease in the G2/M phase vs control, factor” value in [5] was found to be 2.83.
As for `Cc1cccc(C[C@@H]2C[C@H]3C(=O)N(C)C4(C[C@H](C)CC[C@H]4C(C)C)N3O2)c1O` (stereo partly drawn) [2c, (2S,2′R,3a′S,5R)-2′-(2-hydroxy-3-methylbenzyl)-2-isopropyl-5,5′-dimethyldihydro-2′H-spiro[cyclohexane-1,6′-imidazo [1,5-b]isoxazol]-4′(5′H)-one], the IC50 in assay [1] (Homo sapiens, MCF7, MTT assay) turned out to be 7.2 ± 0.2 µM; in [2] (setting [11]), 19.4 ± 1.4 µM; in assay [3] (Homo sapiens, A549, MTT assay), 35.4 ± 0.14 µM.
